Measurements: ChEMBL document CHEMBL5532702, “Coumarin-furo[2,3-d]pyrimidone hybrid molecules targeting human liver cancer cells: synthesis, anticancer effect, EGFR inhibition and molecular docking studies” (RSC Med Chem, 2024)
pIC50: −log10 of the molar value. Activity calls are given as the source filed them. The calls are words filed in the database; no cut-off is given here.

Test system: HepG2
Assay: Cytotoxicity against human HepG2 cells assessed as reduction in cell viability incubated for 48 hrs by CCK-8 assay
Conditions: HepG2, 48 h

`Cc1cccc(-n2c(N3CCOCC3)nc3oc(C)c(C(=O)NN)c3c2=O)c1` and `Cc1ccc(-n2c(N3CCOCC3)nc3oc(C)c(C(=O)NN)c3c2=O)cc1` are within 0.2 log units of each other in pIC50: 4.39 for the first, 4.25 for the second.

Going from `CCCNc1nc2oc(C)c(C(=O)NN)c2c(=O)n1-c1ccc(C)cc1` to `CCCCNc1nc2oc(C)c(C(=O)NN)c2c(=O)n1-c1ccc(C)cc1`, the pIC50 falls from 4.08 to < 4.00.

First: CCCN(CCC)c1nc2oc(C)c(C(=O)NNC(=O)c3cc4ccccc4oc3=O)c2c(=O)n1-c1ccc(C)cc1
Second: CCN(CC)c1nc2oc(C)c(C(=O)NNC(=O)c3cc4ccccc4oc3=O)c2c(=O)n1-c1ccc(C)cc1
The pIC50 of the first is higher: 4.65 for the first, < 4.00 for the second. The first is the more potent here.

First: Cc1oc2nc(N3CCOCC3)n(-c3ccccc3)c(=O)c2c1C(=O)NN
Second: Cc1oc2nc(N3CCOCC3)n(-c3ccccc3)c(=O)c2c1C(=O)NNC(=O)c1cc2ccccc2oc1=O
The pIC50 of the first is 0.27 log units lower: 4.35 for the first, 4.62 for the second. The second is the more potent here.

`CCCNc1nc2oc(C)c(C(=O)NN)c2c(=O)n1-c1cccc(C)c1` and `CCCCNc1nc2oc(C)c(C(=O)NN)c2c(=O)n1-c1cccc(C)c1` are within 0.2 log units of each other in pIC50: 4.23 for the first, 4.13 for the second.

Compared with `CCCN(CCC)c1nc2oc(C)c(C(=O)NNC(=O)c3cc4ccccc4oc3=O)c2c(=O)n1-c1ccccc1`, `CCN(CC)c1nc2oc(C)c(C(=O)NNC(=O)c3cc4ccccc4oc3=O)c2c(=O)n1-c1ccccc1` is 0.26 log units higher in pIC50: 4.84 for the first, 5.10 for the second. The second is the more potent here.

`Cc1ccc(-n2c(N3CCOCC3)nc3oc(C)c(C(=O)NNC(=O)c4cc5ccccc5oc4=O)c3c2=O)cc1` and `Cc1cccc(-n2c(N3CCOCC3)nc3oc(C)c(C(=O)NNC(=O)c4cc5ccccc5oc4=O)c3c2=O)c1` are within 0.2 log units of each other in pIC50: 4.40 for the first, 4.57 for the second.

`CCCCNc1nc2oc(C)c(C(=O)NNC(=O)c3cc4ccccc4oc3=O)c2c(=O)n1-c1ccccc1` and `CCCNc1nc2oc(C)c(C(=O)NNC(=O)c3cc4ccccc4oc3=O)c2c(=O)n1-c1ccccc1` are within 0.2 log units of each other in pIC50: 5.06 for the first, 5.11 for the second.

First: CCCN(CCC)c1nc2oc(C)c(C(=O)NN)c2c(=O)n1-c1ccccc1
Second: CCN(CC)c1nc2oc(C)c(C(=O)NN)c2c(=O)n1-c1ccccc1
The pIC50 of the first is 0.26 log units higher: 4.77 for the first, 4.51 for the second. The first is the more potent here.

Compared with `CCCCNc1nc2oc(C)c(C(=O)NN)c2c(=O)n1-c1ccccc1`, `CCCNc1nc2oc(C)c(C(=O)NN)c2c(=O)n1-c1ccccc1` is higher in pIC50: < 4.00 for the first, 4.16 for the second.

`CCN(CC)c1nc2oc(C)c(C(=O)NNC(=O)c3cc4ccccc4oc3=O)c2c(=O)n1-c1cccc(C)c1` and `CCCNc1nc2oc(C)c(C(=O)NNC(=O)c3cc4ccccc4oc3=O)c2c(=O)n1-c1cccc(C)c1` are within 0.2 log units of each other in pIC50: 4.58 for the first, 4.61 for the second.

Going from `CCCN(CCC)c1nc2oc(C)c(C(=O)NN)c2c(=O)n1-c1ccc(C)cc1` to `CCN(CC)c1nc2oc(C)c(C(=O)NN)c2c(=O)n1-c1ccc(C)cc1`, the pIC50 falls from 5.07 to 4.76 (0.31 log units).

First: CCN(CC)c1nc2oc(C)c(C(=O)NN)c2c(=O)n1-c1cccc(C)c1
Second: CCCCNc1nc2oc(C)c(C(=O)NNC(=O)c3cc4ccccc4oc3=O)c2c(=O)n1-c1cccc(C)c1
The pIC50 of the first is 0.45 log units lower: 4.44 for the first, 4.89 for the second.

`CCCCNc1nc2oc(C)c(C(=O)NNC(=O)c3cc4ccccc4oc3=O)c2c(=O)n1-c1ccc(C)cc1` and `CCCNc1nc2oc(C)c(C(=O)NNC(=O)c3cc4ccccc4oc3=O)c2c(=O)n1-c1ccc(C)cc1` are within 0.2 log units of each other in pIC50: 4.84 for the first, 4.66 for the second.

In the case of `CNC(=O)c1cc(Oc2ccc(NC(=O)Nc3ccc(Cl)c(C(F)(F)F)c3)cc2)ccn1` [SORAFENIB], the pIC50 was 4.91.

Test system: HepG2
Assay: Inhibition of cell migration in human HepG2 cells at 5.42 to 27.10 micromol/L incubated for 24 hrs by crystal violet staining based microscopic analysis
Type: functional
Conditions: dose 5.42-27.1 µmol/L

In the case of `CCN(CC)c1nc2oc(C)c(C(=O)NN)c2c(=O)n1-c1ccc(C)cc1`, the inhibition was “Active”.

Test system: HepG2
Assay: Inhibition of cell invasion in human HepG2 cells at 5.42 to 27.10 micromol/L incubated for 24 hrs by crystal violet staining based microscopic analysis
Type: functional
Conditions: dose 5.42-27.1 µmol/L

For `CCN(CC)c1nc2oc(C)c(C(=O)NN)c2c(=O)n1-c1ccc(C)cc1`, the inhibition was “Active”.
